Test results from article PMC3897169 (MedChemComm, 2013).

Tests used:
L3MBTL3 [1] = molecular target: T1, L3MBTL3 (Homo sapiens, UniProt Q96JM7); experiment: AlphaScreen methylated histone peptide competition assay; format: binding; settings: compared with UNC2533; 12 and 13 after incubation time of 30 minutes
T1 sequence (Q96JM7 225-555 limits assumed): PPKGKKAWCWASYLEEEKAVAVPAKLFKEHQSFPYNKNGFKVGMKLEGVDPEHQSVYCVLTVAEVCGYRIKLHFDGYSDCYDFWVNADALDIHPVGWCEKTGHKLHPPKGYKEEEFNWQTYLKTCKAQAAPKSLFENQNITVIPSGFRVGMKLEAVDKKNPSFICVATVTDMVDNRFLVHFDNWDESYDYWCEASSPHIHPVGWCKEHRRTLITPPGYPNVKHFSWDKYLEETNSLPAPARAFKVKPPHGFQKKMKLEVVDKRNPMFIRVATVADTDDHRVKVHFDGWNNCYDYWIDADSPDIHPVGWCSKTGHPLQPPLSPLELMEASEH

L3MBTL3 [2] = molecular target: T1, L3MBTL3; experiment: Isothermal titration calorimetry; format: binding; settings: compared with UNC2533

| Fold drop in L3MBTL3 activity (AlphaScreen) relative to UNC2533 (L3MBTL3 [1]) | Fold loss in L3MBTL3 activity by ITC relative to UNC2533 (L3MBTL3 [2]) | Compound |
| --- | --- | --- |
| 9 fold | 7 fold | c1cc(N2CCC(N3CCCCC3)CC2)ccc1CCN1CCCC1 [compound 2] |
| 20 fold | – | c1cc(CN2CCCC2)ccc1CCN1CCCC1 [compound 7] |
| more than 30 fold | – | O=C(CCc1ccc(N2CCC(N3CCCC3)CC2)cc1)N1CCCC1 [compound 8] |
| about 5 fold | – | c1cc(N2CCC(N3CCCC3)CC2)ccc1N1CCC(N2CCCC2)CC1 [compound 10] |
| 5 fold | – | N#CC1CCN(CCc2ccc(N3CCC(N4CCCC4)CC3)cc2)C1 (stereo not shown) [compound 12] |
| 5 fold | – | O=C1CCN(CCc2ccc(N3CCC(N4CCCC4)CC3)cc2)C1 [compound 13] |
